This is an account of results in patent publication US8003695B2 (Chroma Therapeutics Ltd., priority 2006, dated 2011).

Structures are written as SMILES.

The target in one assay is T1, IKBKB (IKKβ) (Homo sapiens, UniProt O14920).
T1 construct: purchased Invitrogen (Paisley, UK)
T1 sequence (O14920 1-756): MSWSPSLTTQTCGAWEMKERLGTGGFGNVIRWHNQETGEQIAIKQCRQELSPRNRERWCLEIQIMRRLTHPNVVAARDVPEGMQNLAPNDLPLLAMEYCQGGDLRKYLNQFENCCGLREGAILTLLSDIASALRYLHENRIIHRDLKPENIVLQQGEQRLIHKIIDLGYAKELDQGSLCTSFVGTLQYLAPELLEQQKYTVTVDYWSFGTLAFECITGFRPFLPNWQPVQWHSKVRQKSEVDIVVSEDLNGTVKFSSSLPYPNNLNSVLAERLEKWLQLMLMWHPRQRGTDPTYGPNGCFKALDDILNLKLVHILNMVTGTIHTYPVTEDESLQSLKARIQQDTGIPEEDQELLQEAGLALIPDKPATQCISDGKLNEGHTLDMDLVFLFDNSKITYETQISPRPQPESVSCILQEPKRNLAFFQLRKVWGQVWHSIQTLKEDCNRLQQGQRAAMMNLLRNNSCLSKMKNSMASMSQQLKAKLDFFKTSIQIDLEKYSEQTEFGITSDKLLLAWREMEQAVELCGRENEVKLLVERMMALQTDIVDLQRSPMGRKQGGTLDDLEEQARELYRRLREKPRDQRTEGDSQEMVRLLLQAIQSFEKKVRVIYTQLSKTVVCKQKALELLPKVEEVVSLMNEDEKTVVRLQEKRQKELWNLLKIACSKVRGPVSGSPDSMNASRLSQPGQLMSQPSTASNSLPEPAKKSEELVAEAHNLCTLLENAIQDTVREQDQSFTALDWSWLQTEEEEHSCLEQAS
Nature of the assay: IKKβ Enzyme Assay (Z'-LYTE, Invitrogen). The following applies: ATP at or close to Km; read-out: Inhibitor activity versus IKKβ. The class given is biochemical. In a few lines:
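Z'-LYTE FRET assay with 0.9-8.0 ng human IKBKB, 2 μM Ser/Thr 05 peptide and ATP at or near Km in HEPES pH 7.5, 60 min at room temperature, then 60 min development. Coumarin/fluorescein emission ratio read; duplicate nine-step ⅓-log series from 10 μM; IC50 from sigmoidal fit.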

A further assay relates to THP-1 cells. Nature of the assay: LPS-Stimulation of THP-1 Cells, TNF-α release. The following applies: Homo sapiens, LPS 1 μg/ml, 6 hrs, read-out: Inhibitor activity versus THP-1 TNFα release. The assay is classed as cell-based. As to the method:
LPS-Stimulation of THP-1 Cells
THP-1 cells were plated in 100 μl at a density of 4×10^4 cells/well in V-bottomed 96 well tissue culture treated plates and incubated at 37° C. in 5% CO2 for 16 hrs. 2 hrs after the addition of the inhibitor in 100 μl of tissue culture media, the cells were stimulated with LPS (E. coli strain 005:85, Sigma) at a final concentration of 1 μg/ml and incubated at 37° C. in 5% CO2 for 6 hrs. TNF-α levels were measured from cell-free supernatants by sandwich ELISA (R&D Systems #QTA00B)

For another assay, the system named is human whole blood. Nature of the assay: LPS-Stimulation of Human Whole Blood, TNF-α release. The class given is cell-based. Particulars: LPS 100 ng/ml, 6 hrs, read-out: Inhibitor activity versus human whole blood TNFα release. On the procedure: LPS-Stimulation of Human Whole Blood
Whole blood was taken by venous puncture using heparinised vacutainers (Becton Dickinson) and diluted in an equal volume of RPMI1640 tissue culture media (Sigma). 100 μl was plated in V-bottomed 96 well tissue culture treated plates. 2 hrs after the addition of the inhibitor in 100 μl of RPMI1640 media, the blood was stimulated with LPS (E. coli strain 005:B5, Sigma) at a final concentration of 100 ng/ml and incubated at 37° C. in 5% CO2 for 6 hrs. TNF-α levels were measured from cell-free supernatants by sandwich ELISA (R&D Systems #QTA00B)

Turning to `NC(=O)Nc1sc(-c2ccc(CN[C@H](C(=O)OC3CCCC3)c3ccccc3)cc2)cc1C(N)=O` [Example 1, Cyclopentyl (2S)-({-4-[4-carbamoyl-5-(carbamoylamino)-2-thienyl]benzyl}amino)(phenyl)acetate], the IC50 on IKBKB (IKKβ), in the assay on THP-1 cells and with human whole blood was 1000 to 5000 nM throughout.

In the case of `CC(C)C[C@H](NCc1ccc(-c2cc(C(N)=O)c(NC(N)=O)s2)cc1)C(=O)OC1CCCC1` [Example 2, Cyclopentyl N-{4-[4-carbamoyl-5-(carbamoylamino)-2-thienyl]benzyl}-L-leucinate], the values for the IC50 on IKBKB (IKKβ), in the assay on THP-1 cells and in the assay with human whole blood were under 1000 nM, over 5000 nM and 1000 to 5000 nM, respectively.

Turning to `NC(=O)Nc1sc(-c2ccc(CN[C@@H](C(=O)OC3CCCC3)c3ccccc3)cc2)cc1C(N)=O` [Example 4, Cyclopentyl (2R)-({4-[4-carbamoyl-5-(carbamoylamino)-2-thienyl]benzyl}amino)(phenyl)acetate], the IC50 on IKBKB (IKKβ) was under 1000 nM; with THP-1 cells, over 5000 nM; in the assay with human whole blood, 1000 to 5000 nM.

`CC(C)C[C@H](NCc1cccc(-c2cc(C(N)=O)c(NC(N)=O)s2)c1)C(=O)OC1CCCC1` [Example 8, Cyclopentyl N-{3-[4-carbamoyl-5-(carbamoylamino)-2-thienyl]benzyl}-L-leucinate]: the figures for the IC50 at IKBKB (IKKβ), with THP-1 cells and in the assay with human whole blood were under 1000 nM, under 1000 nM and 1000 to 5000 nM, respectively.

Take `NC(=O)Nc1sc(-c2cccc(CN[C@H](C(=O)OC3CCCC3)c3ccccc3)c2)cc1C(N)=O` [Example 9, Cyclopentyl (2S)-({3-[4-carbamoyl-5-(carbamoylamino)-2-thienyl]benzyl}amino)(phenyl)acetate]: the values for the IC50 on IKBKB (IKKβ), in the assay with THP-1 cells and in the assay on human whole blood were under 1000 nM, under 1000 nM and 1000 to 5000 nM, respectively.

For the compound `NC(=O)Nc1sc(-c2cccc(CN[C@H](C(=O)OC3CCCC3)C3CCCCC3)c2)cc1C(N)=O` [Example 10, Cyclopentyl (2S)-({3-[4-carbamoyl-5-(carbamoylamino)-2-thienyl]benzyl}amino)(cyclohexyl)acetate], the results for the IC50 on IKBKB (IKKβ), in the assay on THP-1 cells and in the assay on human whole blood were 1000 to 5000 nM, under 1000 nM and 1000 to 5000 nM, respectively.

As for `CC(C)(C)OC[C@H](NCc1cccc(-c2cc(C(N)=O)c(NC(N)=O)s2)c1)C(=O)OC1CCCC1` [Example 11, Cyclopentyl O-tert-butyl-N-{3-[4-carbamoyl-5-(carbamoylamino)thiophen-2-yl]benzyl}-L-serinate], the IC50 at IKBKB (IKKβ) was under 1000 nM; in the assay with THP-1 cells, 1000 to 5000 nM; with human whole blood, 1000 to 5000 nM.

On to `C[C@@H](O)[C@H](NCc1cccc(-c2cc(C(N)=O)c(NC(N)=O)s2)c1)C(=O)OC1CCCC1` [Example 13, Cyclopentyl N-{3-[4-carbamoyl-5-(carbamoylamino)thiophen-2-yl]benzyl}-L-threoninate], for which the IC50 at IKBKB (IKKβ), in the assay on THP-1 cells and in the assay on human whole blood was under 1000 nM in each case.

Take `CC(C)C[C@H](NCc1cccc(-c2cc(C(N)=O)c(NC(N)=O)s2)c1)C(=O)OC(C)(C)C` [Example 14, tert-Butyl N-{3-[4-carbamoyl-5-(carbamoylamino)-2-thienyl]benzyl}-L-leucinate]: the IC50 on IKBKB (IKKβ) was under 1000 nM; in the assay with THP-1 cells it was under 1000 nM; in the assay on human whole blood, 1000 to 5000 nM.

On to `CC(C)C[C@H](NCCc1cccc(-c2cc(C(N)=O)c(NC(N)=O)s2)c1)C(=O)OC1CCCC1` [Example 18, Cyclopentyl N-(2-{3-[4-carbamoyl-5-(carbamoylamino)-2-thienyl]phenyl}ethyl)-L-leucinate], for which the IC50 at IKBKB (IKKβ) was 1000 to 5000 nM; with THP-1 cells it was under 1000 nM; with human whole blood, 1000 to 5000 nM.

For the compound `NC(=O)Nc1sc(-c2cccc(CCN[C@H](C(=O)OC3CCCC3)c3ccccc3)c2)cc1C(N)=O` [Example 19, Cyclopentyl (2S)-[(2-{3-[4-carbamoyl-5-(carbamoylamino)-2-thienyl]phenyl}ethyl)amino](phenyl)acetate], the IC50 at IKBKB (IKKβ), with THP-1 cells and in the assay with human whole blood was under 1000 nM each time.

`CC(C)C[C@H](NCCc1cc(-c2cc(C(N)=O)c(NC(N)=O)s2)ccc1F)C(=O)OC1CCCC1` [Example 22, Cyclopentyl N-(2-{5-[4-carbamoyl-5-(carbamoylamino)thiophen-2-yl]-2-fluorophenyl}ethyl)-L-leucinate]: the IC50 on IKBKB (IKKβ), with THP-1 cells and with human whole blood was 1000 to 5000 nM each time.

Consider `CC(C)C[C@H](NC/C=C/c1ccc(-c2cc(C(N)=O)c(NC(N)=O)s2)cc1)C(=O)OC1CCCC1` [Example 29, Cyclopentyl N-[(2E)-3-{4-[4-carbamoyl-5-(carbamoylamino)-2-thienyl]phenyl}Prop-2-en-1-yl]-L-leucinate], for which the IC50 at IKBKB (IKKβ), in the assay with THP-1 cells and in the assay on human whole blood was under 1000 nM in each case.

Take `CC(C)C[C@H](NC/C=C/c1ccc(-c2cc(C(N)=O)c(NC(N)=O)s2)cc1F)C(=O)OC1CCCC1` [Example 31, Cyclopentyl N-[(2E)-3-{4-[4-carbamoyl-5-(carbamoylamino)thiophen-2-yl]-2-fluorophenyl}prop-2-en-1-yl]-L-leucinate]: the IC50 on IKBKB (IKKβ), in the assay on THP-1 cells and in the assay on human whole blood was 1000 to 5000 nM in each case.

Consider `CC(C)C[C@H](NC/C=C/c1c(F)cc(-c2cc(C(N)=O)c(NC(N)=O)s2)cc1F)C(=O)OC1CCCC1` [Example 38, Cyclopentyl N-[(2E)-3-{4-[4-carbamoyl-5-(carbamoylamino)thiophen-2-yl]-2,6-difluorophenyl}prop-2-en-1-yl]-L-leucinate], for which the figures for the IC50 at IKBKB (IKKβ) and in the assay on human whole blood were over 5000 nM and 1000 to 5000 nM, respectively.

As to `CC(C)C[C@H](NC/C=C/c1ccc(-c2cc(C(N)=O)c(NC(N)=O)s2)c(C(F)(F)F)c1)C(=O)OC1CCCC1` [Example 39, Cyclopentyl N-[(2E)-3-{4-[4-carbamoyl-5-(carbamoylamino)thiophen-2-yl]-3-(trifluoromethyl)phenyl}prop-2-en-1-yl]-L-leucinate], the figures for the IC50 at IKBKB (IKKβ) and with human whole blood were over 5000 nM and 1000 to 5000 nM, respectively.

Take `CC(C)(C)OC[C@H](NC/C=C/c1ccc(-c2cc(C(N)=O)c(NC(N)=O)s2)cc1)C(=O)OC1CCCC1` [Example 43, Cyclopentyl O-tert-butyl-N-[(2E)-3-{4-[4-carbamoyl-5-(carbamoylamino)thiophen-2-yl]phenyl}prop-2-en-1-yl]-L-serinate]: the IC50 was under 1000 nM on IKBKB (IKKβ) and 1000 to 5000 nM in the assay on human whole blood.

As to `NC(=O)Nc1sc(-c2ccc(/C=C/CN[C@H](C(=O)OC3CCCC3)C3CCCCC3)cc2)cc1C(N)=O` [Example 44, Cyclopentyl (2S)-{[(2E)-3-{4-[4-carbamoyl-5-(carbamoylamino)thiophen-2-yl]phenyl}prop-2-en-1-yl]amino}(cyclohexyl)ethanoate], the IC50 was under 1000 nM on IKBKB (IKKβ) and over 5000 nM with human whole blood.

On to `CC(C)(C)OC(=O)[C@@H](NC/C=C/c1ccc(-c2cc(C(N)=O)c(NC(N)=O)s2)cc1)C1CCCCC1` [Example 45, tert-butyl (2S)-{[(2E)-3-{4-[4-carbamoyl-5-(carbamoylamino)thiophen-2-yl]phenyl}prop-2-en-1-yl]amino}(cyclohexyl)ethanoate], for which the IC50 on IKBKB (IKKβ) was under 1000 nM; with human whole blood, over 5000 nM.

With `CC(C)C[C@@H](NC/C=C/c1ccc(-c2cc(C(N)=O)c(NC(N)=O)s2)cc1)C(=O)OC1CCCC1` [Example 46, Cyclopentyl N-[(2E)-3-{4-[4-carbamoyl-5-(carbamoylamino)-2-thienyl]phenyl}prop-2-en-1-yl]-D-leucinate], the IC50 at IKBKB (IKKβ) is under 1000 nM; with human whole blood, 1000 to 5000 nM.
